Legend:
[1] = system: Fusobacterium nucleatum PK1594/Veillonella atypica PK1910; experiment: reversal of coaggregation, visual score; assay type: cell-based; parameters: key to coaggregation score without sugar: *: Coaggregations were reversed by both D-galactose and D-tagatose; details: pair PK1594/PK1910; for coaggregation score without sugar: coaggregation score 3 without sugar; for coaggregation score: water score 3, scale 0 no visible to 4 maximum coaggregation
Experimental: (§1) Fifteen oral isolates, including both early colonizers (Streptococcus and Actinomyces) and late colonizers (Fusobacterium, Porphyromonas, Prevotella, Veillonella, Capnocytophaga, and Actinobacillus), were tested for their ability to coaggregate with each other, followed by testing for the reversal of coaggregation by the addition of D-tagatose. Bacterial strains used were of human gingival crevice origin. The coaggregation was examined visually by a scoring system ranging from 0 for no visible coaggregation to 4 for maximum coaggregation [Cisar J. O., Kolenbrander P. E., and McIntire F. C., “Specificity of coaggregation reactions between human oral streptococci and strains of Actinomyces viscosus or Actinomyces naeslundii”, Infect. Immun., 24:742–752. 1979]. D-Tagatose, at a concentration of less than 750 mM, completely reversed the coaggregation of 17 (60%) of 28 strong coaggregating pairs (with a coaggregation score of 2 or higher) tested. […] These D-tagatose sensitive coaggregations were D-galactose reversible as well.
(§2) Pairs of various species of oral bacteria were tested for coaggregation, and for reversal of coaggregation when D-tagatose or D-galactose was administered.

[2] = system: Actinomyces naeslundii PK29/Streptococcus oralis C104; experiment: reversal of coaggregation, visual score; assay type: cell-based; parameters: key to coaggregation score without sugar: *: Coaggregations were reversed by both D-galactose and D-tagatose; details: for coaggregation score without sugar: pair Cl04/PK29, coaggregation score 4 without sugar; for coaggregation score: pair PK29/C104, water score 4, scale 0 no visible to 4 maximum coaggregation
Experimental: as §1, §2

[3] = system: Actinomyces naeslundii PK29/Streptococcus oralis SO34; experiment: reversal of coaggregation, visual score; assay type: cell-based; parameters: key to coaggregation score without sugar: *: Coaggregations were reversed by both D-galactose and D-tagatose; details: for coaggregation score: pair PK29/SO34, water score 4, scale 0 no visible to 4 maximum coaggregation; for coaggregation score without sugar: pair SO34/PK29, coaggregation score 4 without sugar
Experimental: as §1, §2

[4] = system: Fusobacterium nucleatum PK1594/Porphyromonas gingivalis PK1924; experiment: reversal of coaggregation, visual score; assay type: cell-based; parameters: key to coaggregation score without sugar: *: Coaggregations were reversed by both D-galactose and D-tagatose; details: pair PK1594/PK1924; for coaggregation score without sugar: coaggregation score 4 without sugar; for coaggregation score: water score 4, scale 0 no visible to 4 maximum coaggregation
Experimental: as §1, §2

[5] = system: Fusobacterium nucleatum PK1594/Actinobacillus actinomycetemcomitans JP2; experiment: reversal of coaggregation, visual score; assay type: cell-based; parameters: key to coaggregation score without sugar: *: Coaggregations were reversed by both D-galactose and D-tagatose; details: pair PK1594/JP2; for coaggregation score without sugar: coaggregation score 3 without sugar; for coaggregation score: water score 3, scale 0 no visible to 4 maximum coaggregation
Experimental: as §1, §2

[6] = system: Streptococcus morbillorum PK509/Prevotella loescheii PK1295; experiment: reversal of coaggregation, visual score; assay type: cell-based; parameters: key to coaggregation score without sugar: *: Coaggregations were reversed by both D-galactose and D-tagatose; details: pair PK509/PK1295; for coaggregation score without sugar: coaggregation score 2 without sugar; for coaggregation score: water score 2, scale 0 no visible to 4 maximum coaggregation
Experimental: as §1, §2

[7] = system: Veillonella atypica PK1910/Streptococcus oralis C104; experiment: reversal of coaggregation, visual score; assay type: cell-based; parameters: key to coaggregation score without sugar: *: Coaggregations were reversed by both D-galactose and D-tagatose; details: for coaggregation score without sugar: pair Cl04/PK1910, coaggregation score 3 without sugar; for coaggregation score: pair PK1910/C104, water score 3, scale 0 no visible to 4 maximum coaggregation
Experimental: as §1, §2

[8] = system: Streptococcus morbillorum PK509/Streptococcus oralis C104; experiment: reversal of coaggregation, visual score; assay type: cell-based; parameters: key to coaggregation score without sugar: *: Coaggregations were reversed by both D-galactose and D-tagatose; details: for coaggregation score without sugar: pair Cl04/PK509, coaggregation score 3 without sugar; for coaggregation score: pair PK509/C104, water score 3, scale 0 no visible to 4 maximum coaggregation
Experimental: as §1, §2

[9] = system: Streptococcus morbillorum PK509/Veillonella atypica PK1910; experiment: reversal of coaggregation, visual score; assay type: cell-based; parameters: key to coaggregation score without sugar: *: Coaggregations were reversed by both D-galactose and D-tagatose; details: pair PK509/PK1910; for coaggregation score without sugar: coaggregation score 2 without sugar; for coaggregation score: water score 2, scale 0 no visible to 4 maximum coaggregation
Experimental: as §1, §2

[10] = system: Prevotella loescheii PK1295/Streptococcus mitis J22; experiment: reversal of coaggregation, visual score; assay type: cell-based; parameters: key to coaggregation score without sugar: *: Coaggregations were reversed by both D-galactose and D-tagatose; details: for coaggregation score without sugar: pair J22/PK1295, coaggregation score 3 without sugar; for coaggregation score: pair PK1295/J22, water score 4, scale 0 no visible to 4 maximum coaggregation
Experimental: as §1, §2

[11] = system: Streptococcus morbillorum PK509/Streptococcus oralis SO34; experiment: reversal of coaggregation, visual score; assay type: cell-based; parameters: key to coaggregation score without sugar: *: Coaggregations were reversed by both D-galactose and D-tagatose; details: for coaggregation score: pair PK509/SO34, water score 2, scale 0 no visible to 4 maximum coaggregation; for coaggregation score without sugar: pair SO34/PK509, coaggregation score 2 without sugar
Experimental: as §1, §2

[12] = system: Veillonella atypica PK1910/Streptococcus oralis SO34; experiment: reversal of coaggregation, visual score; assay type: cell-based; parameters: key to coaggregation score without sugar: *: Coaggregations were reversed by both D-galactose and D-tagatose; details: for coaggregation score: pair PK1910/SO34, water score 3, scale 0 no visible to 4 maximum coaggregation; for coaggregation score without sugar: pair SO34/PK1910, coaggregation score 3 without sugar
Experimental: as §1, §2

[13] = system: F. nucleatum PK1594 and P. gingivalis PK1924; experiment: phase-contrast photomicrographs of coaggregation; assay type: cell-based, Fusobacterium nucleatum; Porphyromonas gingivalis
[14] = system: Actinomyces naeslundii PK947/Streptococcus oralis SO34; experiment: reversal of coaggregation, visual score; assay type: cell-based; parameters: key to reversal of coaggregation: *: Coaggregations were reversed by both D-galactose and D-tagatose; details: for coaggregation score: pair PK947/SO34, water score 3, scale 0 no visible to 4 maximum coaggregation; for reversal of coaggregation: pair SO34/PK947, coaggregation score 3 without sugar
Experimental: as §1, §2

[15] = system: Actinomyces naeslundii PK29/Streptococcus morbillorum PK509; experiment: reversal of coaggregation, visual score; assay type: cell-based; parameters: key to reversal of coaggregation: *: Coaggregations were reversed by both D-galactose and D-tagatose; details: for coaggregation score: pair PK29/PK509, water score 2, scale 0 no visible to 4 maximum coaggregation; for reversal of coaggregation: pair PK509/PK29, coaggregation score 2 without sugar
Experimental: as §1, §2

[16] = system: Actinomyces naeslundii PK947/Streptococcus mitis J22; experiment: reversal of coaggregation, visual score; assay type: cell-based; parameters: key to reversal of coaggregation: *: Coaggregations were reversed by both D-galactose and D-tagatose; details: for reversal of coaggregation: pair J22/PK947, coaggregation score 2 without sugar; for coaggregation score: pair PK947/J22, water score 2, scale 0 no visible to 4 maximum coaggregation
Experimental: as §1, §2

[17] = system: Actinomyces naeslundii PK29/Streptococcus mitis J22; experiment: reversal of coaggregation, visual score; assay type: cell-based; parameters: key to reversal of coaggregation: *: Coaggregations were reversed by both D-galactose and D-tagatose; details: for reversal of coaggregation: pair J22/PK29, coaggregation score 4 without sugar; for coaggregation score: pair PK29/J22, water score 4, scale 0 no visible to 4 maximum coaggregation
Experimental: as §1, §2

[18] = system: Actinomyces naeslundii PK947/Streptococcus oralis C104; experiment: reversal of coaggregation, visual score; assay type: cell-based; parameters: key to reversal of coaggregation: *: Coaggregations were reversed by both D-galactose and D-tagatose; details: for reversal of coaggregation: pair Cl04/PK947, coaggregation score 2 without sugar; for coaggregation score: pair PK947/C104, water score 2, scale 0 no visible to 4 maximum coaggregation
Experimental: as §1, §2

SMILES: O=C(CO)[C@@H](O)[C@@H](O)[C@H](O)CO [D-Tagatose]
- coaggregation score without sugar [1]: 3*
- coaggregation score ([1]; sugar 200 mM): 0
- coaggregation score without sugar [2]: 4*
- coaggregation score ([2]; sugar 750 mM): 1
- coaggregation score ([3]; sugar 750 mM): 1
- coaggregation score without sugar [3]: 4*
- coaggregation score without sugar [4]: 4*
- coaggregation score ([4]; sugar 400 mM): 0
- coaggregation score without sugar [5]: 3*
- coaggregation score ([5]; sugar 600 mM): 0
- coaggregation score without sugar [6]: 2*
- coaggregation score ([6]; sugar 600 mM): 0
- coaggregation score without sugar [7]: 3*
- coaggregation score ([7]; sugar 200 mM): 1
- coaggregation score without sugar [8]: 3*
- coaggregation score ([8]; sugar 750 mM): 1
- coaggregation score without sugar [9]: 2*
- coaggregation score ([9]; sugar 400 mM): 0
- coaggregation score without sugar [10]: 3*
- coaggregation score ([10]; sugar 750 mM): 2
- coaggregation score ([11]; sugar 400 mM): 1
- coaggregation score without sugar [11]: 2*
- coaggregation score ([12]; sugar 200 mM): 1
- coaggregation score without sugar [12]: 3*
- dissociation of coaggregate clumps ([13]; 400 mM final concentration): dissociates the clumps into individual cells
- coaggregation score ([14]; sugar 200 mM): 0
- reversal of coaggregation [14]: 3*
- coaggregation score ([15]; sugar 200 mM): 0
- reversal of coaggregation [15]: 2*
- reversal of coaggregation [16]: 2*
- coaggregation score ([16]; sugar 200 mM): 0
- reversal of coaggregation [17]: 4*
- coaggregation score ([17]; sugar 750 mM): 1
- reversal of coaggregation [18]: 2*
- coaggregation score ([18]; sugar 200 mM): 0

SMILES: O=C[C@H](O)[C@@H](O)[C@@H](O)[C@H](O)CO [D-Galactose]
- coaggregation score without sugar [1]: 3*
- coaggregation score ([1]; sugar 143 mM): 0
- coaggregation score without sugar [2]: 4*
- coaggregation score ([2]; sugar 143 mM): 1
- coaggregation score ([3]; sugar 143 mM): 1
- coaggregation score without sugar [3]: 4*
- coaggregation score without sugar [4]: 4*
- coaggregation score ([4]; sugar 143 mM): 0
- coaggregation score without sugar [5]: 3*
- coaggregation score ([5]; sugar 143 mM): 1
- coaggregation score without sugar [6]: 2*
- coaggregation score ([6]; sugar 143 mM): 0
- coaggregation score without sugar [7]: 3*
- coaggregation score ([7]; sugar 143 mM): 0
- coaggregation score without sugar [8]: 3*
- coaggregation score ([8]; sugar 143 mM): 0
- coaggregation score without sugar [9]: 2*
- coaggregation score ([9]; sugar 143 mM): 0
- coaggregation score without sugar [10]: 3*
- coaggregation score ([10]; sugar 143 mM): 0
- coaggregation score ([11]; sugar 143 mM): 0
- coaggregation score without sugar [11]: 2*
- coaggregation score ([12]; sugar 143 mM): 1
- coaggregation score without sugar [12]: 3*
- dissociation of coaggregate clumps ([13]; 143 mM final concentration): dissociates clumps into individual cells
- coaggregation score ([14]; sugar 143 mM): 0
- reversal of coaggregation [14]: 3*
- coaggregation score ([15]; sugar 143 mM): 0
- reversal of coaggregation [15]: 2*
- reversal of coaggregation [16]: 2*
- coaggregation score ([16]; sugar 143 mM): 0
- reversal of coaggregation [17]: 4*
- coaggregation score ([17]; sugar 143 mM): 1
- reversal of coaggregation [18]: 2*
- coaggregation score ([18]; sugar 143 mM): 0

Source: patent publication US7189351B2, “D-tagatose as an anti-biofilm agent” (priority 2001, dated 2007)
